Laboratory results taken from ChEMBL document CHEMBL5506061, “Chb-M', an Inhibitor of the RUNX Family Binding to DNA, Induces Apoptosis in p53-Mutated Non-Small Cell Lung Cancer and Inhibits Tumor Growth and Repopulation In Vivo” (J Med Chem, 2024).
Calls of active or inactive are those of the source. No cut-off for these calls is given here.

Experiments:
NCI-H2228-Luc [1] = test: In vivo antitumor activity against human NCI-H2228-Luc cells xenografted in CB17.Cg.Prkdc-scid Lystbg-j/CrlCrlj mouse assessed as prolonged reduction in tumor volume at 25 mg/kg, po administered every day (35 administration in total) measured after 70 days of last dose; type: functional, organism-based; conditions: time 70.0 day
NCI-H2228-Luc [2] = test: In vivo antitumor activity against human NCI-H2228-Luc cells xenografted in CB17.Cg.Prkdc-scid Lystbg-j/CrlCrlj mouse assessed as reduction in tumor volume at 25 mg/kg, po administered every day (35 administration in total); type: functional, organism-based; conditions: time 35.0 day
NCI-H2228-Luc [3] = test: In vivo antitumor activity against human NCI-H2228-Luc cells xenografted in CB17.Cg.Prkdc-scid Lystbg-j/CrlCrlj mouse assessed as prolonged reduction in tumor volume (cancer free) at 25 mg/kg, po administered every day (35 administration in total) measured after 15 days of last dose; type: functional, organism-based; conditions: time 50.0 day
NCI-H2228-Luc [4] = test: Anticancer activity against p53-mutated human NCI-H2228-Luc cells assessed as cell viability at 0.3 to 3 uM incubated for 72 hrs by SF - cell counting reagent based colorimetric assay; type: functional; conditions: dose 0.3-3 µM
BJ = test: Cytotoxicity against human BJ cells assessed as cell viability at 0.3 to 3 uM incubated for 72 hrs by SF - cell counting reagent based colorimetric assay; type: toxicity; conditions: dose 0.3-3 µM
[5] = Hematological toxicity in wild type mouse C-kit positive fraction of bone marrow cells assessed as decrease in colony forming capacity at 10 uM; type: cell-based; conditions: bone marrow cell
NCI-H2228-Luc [6] = test: Induction of RUNX3 mRNA level in human NCI-H2228-Luc cells at 0.3 to 3 uM incubated for 24 hrs by RT-qPCR analysis; type: functional, cell-based; conditions: dose 0.3-3 µM
NCI-H2228-Luc [7] = test: Induction of apoptosis in p53-mutated human NCI-H2228-Luc cells assessed as early apoptotic cells at 0.3 to 3 uM incubated for 72 hrs by Annexin V-FITC and propidium iodide (PI) staining based flow cytometric analysis; type: functional, cell-based; conditions: dose 0.3-3 µM
NCI-H2228-Luc [8] = test: Induction of apoptosis in p53-mutated human NCI-H2228-Luc cells assessed as increase in TAp73 mRNA expression incubated for 24 hrs by RT-qPCR analysis; type: functional, cell-based
NCI-H2228-Luc [9] = test: Induction of apoptosis in p53-mutated human NCI-H2228-Luc cells assessed as decrease in BCL11A mRNA expression at 0.3 to 1 uM incubated for 24 hrs by RT-qPCR analysis; type: functional, cell-based; conditions: dose 0.3-1 µM
[10] = Toxicity in CB17.Cg.Prkdc-scid Lystbg-j/CrlCrlj mouse xenografted with human NCI-H2228-Luc cells assessed as change in body weight at 5 mg/kg, iv (tail vein) administered twice a week (10 injections in total) measured after 3 days; type: organism-based; conditions: in vivo, 912 h, time 38 day
[11] = Hematological toxicity in CB17.Cg.Prkdc-scid Lystbg-j/CrlCrlj mouse xenografted with human NCI-H2228-Luc cells assessed as change in peripheral blood cell count at 320 microg/kg, iv for 3 months; type: organism-based; conditions: in vivo, 0.32 mg/kg, 2190 h, dose 320 µg/kg
NCI-H2228-Luc [12] = test: In vivo antitumor activity against human NCI-H2228-Luc cells xenografted in CB17.Cg.Prkdc-scid Lystbg-j/CrlCrlj mouse assessed as prolonged reduction in tumor volume at 5 mg/kg, iv (tail vein) administered twice a week (10 injections in total) measured after 35 days of last dose relative to alectinib and ceritinib; type: functional, organism-based; conditions: time 70.0 day
NCI-H2228-Luc [13] = test: Anticancer activity against p53-mutated human NCI-H2228-Luc cells assessed as cell viability incubated for 72 hrs by SF - cell counting reagent based colorimetric assay; type: functional; conditions: dose 0.3-3 µM
NCI-H2228-Luc [14] = test: Induction of RUNX2 mRNA level in human NCI-H2228-Luc cells at 0.3 to 3 uM incubated for 24 hrs by RT-qPCR analysis; type: functional, cell-based; conditions: dose 0.3-3 µM
[15] = Hematological toxicity in CB17.Cg.Prkdc-scid Lystbg-j/CrlCrlj mouse xenografted with human NCI-H2228-Luc cells assessed as decrease in platelets at 10 mg/kg, iv (tail vein) administered twice a week (10 injections in total) measured after 3 days; type: organism-based; conditions: in vivo, 912 h, time 38 day
NCI-H2228-Luc [16] = test: Induction of apoptosis in p53-mutated human NCI-H2228-Luc cells assessed as late apoptotic cells at 0.3 to 3 uM incubated for 72 hrs by Annexin V-FITC and propidium iodide (PI) staining based flow cytometric analysis; type: functional, cell-based; conditions: dose 0.3-3 µM
NCI-H2228-Luc [17] = test: In vivo antitumor activity against human NCI-H2228-Luc cells xenografted in CB17.Cg.Prkdc-scid Lystbg-j/CrlCrlj mouse assessed as reduction in tumor volume at 5 mg/kg, iv (tail vein) administered twice a week (10 injections in total) measured after 3 days; type: functional, organism-based; conditions: time 38.0 day
NCI-H2228-Luc [18] = test: Induction of RUNX1 mRNA level in human NCI-H2228-Luc cells at 0.3 to 3 uM incubated for 24 hrs by RT-qPCR analysis; type: functional, cell-based; conditions: dose 0.3-3 µM
NCI-H2228-Luc [19] = test: In vivo antitumor activity against human NCI-H2228-Luc cells xenografted in CB17.Cg.Prkdc-scid Lystbg-j/CrlCrlj mouse assessed as prolonged reduction in tumor volume (cancer free) at 25 mg/kg, po administered every day (35 administration in total) measured after 8 days of last dose; type: functional, organism-based; conditions: time 43.0 day
NCI-H2228-Luc [20] = test: In vivo antitumor activity against human NCI-H2228-Luc cells xenografted in CB17.Cg.Prkdc-scid Lystbg-j/CrlCrlj mouse assessed as prolonged reduction in tumor volume at 25 mg/kg, po administered every day (35 administration in total) measured after 77 days of last dose; type: functional, organism-based; conditions: time 77.0 day

For `Cc1cc(Nc2ncc(Cl)c(Nc3ccccc3S(=O)(=O)C(C)C)n2)c(OC(C)C)cc1C1CCNCC1`, the Activity (NCI-H2228-Luc [1]) was “inactive”, the Activity (NCI-H2228-Luc [2]) was “Active” and the Activity (NCI-H2228-Luc [3]) was “Active”.
With `O=C(O)CCCc1ccc(N(CCCl)CCCl)cc1` [CHLORAMBUCIL] the Activity (NCI-H2228-Luc [4]) was “inactive” and the Activity (BJ) was “Non-Toxic”.
In the case of `CN(C)CCCNC(=O)c1cc(NC(=O)c2cc(NC(=O)c3cc(NC(=O)c4cc(NC(=O)CCCNC(=O)c5nc(NC(=O)c6nc(NC(=O)c7cc(NC(=O)c8nc(NC(=O)CCNC(=O)CCCc9ccc(N(CCCl)CCCl)cc9)cn8C)cn7C)cn6C)cn5C)cn4C)cn3C)cn2C)cn1C`, the Activity [5] is reported as “Non-Toxic”, the Activity (NCI-H2228-Luc [6]) is reported as “Active” and the Activity (NCI-H2228-Luc [7]) is reported as “Active”. The Activity (NCI-H2228-Luc [8]) was “Dose-Dependent Effect”, the Activity (NCI-H2228-Luc [9]) was “Active” and the Activity [10] was “Non-Toxic”. For the same compound, the Activity (BJ) was “Non-Toxic”, the Activity [11] was “Non-Toxic” and the Activity (NCI-H2228-Luc [12]) was “Active”. The Activity (NCI-H2228-Luc [13]) was “Dose-Dependent Effect”, the Activity (NCI-H2228-Luc [14]) was “Active” and the Activity [15] was “Non-Toxic”. For the same compound, the Activity (NCI-H2228-Luc [16]) was “Active”, the Activity (NCI-H2228-Luc [17]) was “Active” and the Activity (NCI-H2228-Luc [18]) was “Active”.
With `CN(C)CCCNC(=O)c1cc(NC(=O)c2cc(NC(=O)c3cc(NC(=O)c4cc(NC(=O)CCCNC(=O)c5nc(NC(=O)c6nc(NC(=O)c7cc(NC(=O)c8nc(NC(=O)CCNC(=O)CCCc9ccc(N(CCO)CCO)cc9)cn8C)cn7C)cn6C)cn5C)cn4C)cn3C)cn2C)cn1C` the Activity (NCI-H2228-Luc [4]) was “inactive” and the Activity (BJ) was “Non-Toxic”.
For `CN(C)CCCNC(=O)c1cc(NC(=O)c2cc(NC(=O)c3nc(NC(=O)c4nc(NC(=O)CCCNC(=O)c5cc(NC(=O)c6cc(NC(=O)c7nc(NC(=O)c8nc(NC(=O)CCNC(=O)CCCc9ccc(N(CCCl)CCCl)cc9)cn8C)cn7C)cn6C)cn5C)cn4C)cn3C)cn2C)cn1C`, the Activity (NCI-H2228-Luc [4]) was “inactive” and the Activity (BJ) was “Non-Toxic”.
For `CCc1cc2c(cc1N1CCC(N3CCOCC3)CC1)C(C)(C)c1[nH]c3cc(C#N)ccc3c1C2=O`, the Activity (NCI-H2228-Luc [2]) was “Active”, the Activity (NCI-H2228-Luc [19]) was “Active” and the Activity (NCI-H2228-Luc [20]) was “inactive”.
